Results: patent US20160367511A1, “EFFICACY OF DIETARY DHA-PHOSPHOLIPID FOR BRAIN DHA AND DPA ACCRETION IN NEONATES” (N.V. NUTRICIA, priority 2013, published 2016)

Details: both, Yorkshire x Landrace cross sows bred with Hampshire boars, pig, in vivo, 6 days
Protocol: The TAG tracer (TAG-^13C-DHA) had ^13C-DHA in the sn-2 position with unlabeled 16:0 in the sn-1 and sn-3 positions. The tracer representative for PL was phosphatidylcholine (PC) with ^13C-DHA in the sn-2 position and unlabeled 16:0 in the sn-1 position (PC-^13C-DHA).
Sows (Yorkshire and Landrace cross) were bred with Hampshire boars. After birth, piglets were left to nurse with the sow for at least 48 hours. Twenty piglets, 2 to 4 days of age, were chosen for the study based on the following criteria: weight (about 2.0 kg), gender (10 males and 10 females), health (active and apparently normal, and not the smallest animal in the litter) and sow. Piglets were given a unique number/color combination identifier and then were transported to Large Animal Research and Teaching Unit (LARTU), Cornell University.
At the study site, piglets were housed in individual stainless steel cages and were placed on a single fully balanced commercially available young farm animal milk replacer formula immediately upon arrival.
On day 16 of life, 16 robust piglets were assigned to two dosing groups balanced with respect to gender, weight, and age but otherwise distributed randomly. Group PC were orally dosed with PC-^13C-DHA; Group TG were dosed with TG-^13C-DHA.
Doses were prepared by dissolving CHC13 solutions of PC-^13C-DHA or TAG-^13C-DHA in about 1 mL of refined olive oil and driving off the CHCl3 by gentle heating under flowing dry N2 over 4 hours. The resulting olive oils were carefully placed on the surface of a few mL of reconstituted piglet formula and sonicated until homogeneous. The resulting labeled formula was split into 1 to 2 mL aliquots gravimetrically and administered orally to piglets, followed by several washes of the vials containing the labeled formulas, at the beginning of a feed. Care was taken to insure all of the labeled formula and the washes, consisting of a total of up to 10 mL, were swallowed by the piglets. Piglets were then provided with their normal meal of 500 mL milk replacer which they routinely consume completely. Doses to piglets corresponded to about 20 mg ^13C-DHA delivered in PC and 86 mg of ^13C-DHA delivered in TAG.
Six days after the dose, and on a single day after 20 days of formula, all piglets were euthanized by exsanguination under anesthesia. Blood for fatty acid analysis was collected in tubes with EDTA and spun to prepare red blood cells. […] A piece was immediately used for preparation of synaptosomes, and the remaining grey matter was flash frozen for fatty acid analysis. Retina, heart, liver, biceps femoris muscle and kidney were also harvested, and all tissues were flash frozen and stored at −80° C. until prepared for analysis. […]

CC/C=C\C/C=C\C/C=C\C/C=C\C/C=C\C/C=C\CCC(=O)O [^13C-DHA, docosahexaenoic acid]
13C-DHA relative to 13C-DPA in grey matter: about 8 fold | 13C-DHA relative to 13C-DPA in liver: 40 fold | 13C-DHA relative to DPAn-3 in retina: 6.3 fold | liver 13C-DHA relative to grey matter 13C-DHA: about 20 fold
